± gives the expanded uncertainty stated by the source.
Conditions: for mass density: 293 K, 101.33 kPa, Pycnometric method; for vapor or sublimation pressure: Transpiration method

CCN1C(=O)CC(=O)N(CC)C1=S [1,3-diethyl-2-thiobarbituric acid]
Conditions | mass density [kg/m3]
Crystal | 1610 ± 20

Crystal
Conditions | vapor or sublimation pressure [kPa]
327.3 K | 0.00039 ± 3e-05
333.6 K | 0.00074 ± 5e-05
337.7 K | 0.0011 ± 8e-05
340 K | 0.00135 ± 0.0001
343 K | 0.00185 ± 0.00014
348 K | 0.00293 ± 0.00022
349.1 K | 0.0034 ± 0.00024
351 K | 0.00384 ± 0.00028
353.3 K | 0.00489 ± 0.00036
354.1 K | 0.00551 ± 0.00041
355.3 K | 0.00634 ± 0.00045
358.1 K | 0.00756 ± 0.00055
362.4 K | 0.01184 ± 0.00086
367.7 K | 0.01865 ± 0.0014
368.6 K | 0.02034 ± 0.0015
370.7 K | 0.02408 ± 0.0017
372.2 K | 0.02684 ± 0.0019
375.7 K | 0.03524 ± 0.0025
375.9 K | 0.03465 ± 0.0024

CCN1C(=O)CC(=O)N(CC)C1=O [1,3-diethylbarbituric acid]
Conditions | mass density [kg/m3]
Crystal | 1320 ± 20

Liquid
Conditions | vapor or sublimation pressure [kPa]
328.9 K | 0.00282 ± 0.00021
333.8 K | 0.00441 ± 0.00032
339.1 K | 0.00675 ± 0.00048
346 K | 0.0115 ± 0.00082
351.2 K | 0.01744 ± 0.0012
356.2 K | 0.02535 ± 0.0018
360.3 K | 0.03131 ± 0.0022
366 K | 0.04999 ± 0.0036
371.3 K | 0.07142 ± 0.005
376.8 K | 0.09721 ± 0.0069
380.7 K | 0.1327 ± 0.0094
